# Results from publication PMC10041525, “New Dual Inhibitors of Bacterial Topoisomerases with Broad-Spectrum Antibacterial Activity and In Vivo Efficacy against Vancomycin-Intermediate Staphylococcus aureus” (Journal of Medicinal Chemistry, 2023).
# Tested on: 100 A. baumannii strains (50 MDR, 50 non-MDR)
# Assay: MIC broth microdilution at IHMA Europe, panel of 100 strains
# Assay type: cell-based
substance,measurement,setting,value
piperacillin/tazobactam [Piperacillin Tazobactam],MIC,"A. baumannii IHMA 1769393, Lithuania 2018, Non-MDR",≤0.25 µg/mL
same,MIC,"A. baumannii IHMA 1769782, Israel 2018, MDR",>128 µg/mL
same,MIC,"A. baumannii IHMA 1769910, Israel 2018, Non-MDR",≤0.25 µg/mL
same,MIC,"A. baumannii IHMA 1790317, Czech Republic 2018, Non-MDR",≤0.25 µg/mL
same,MIC,"A. baumannii IHMA 1790916, Romania 2018, Non-MDR",≤0.25 µg/mL
same,MIC,"A. baumannii IHMA 1791877, Israel 2018, MDR",>128 µg/mL
same,MIC,"A. baumannii IHMA 1792961, Jordan 2018, MDR",>128 µg/mL
same,MIC,"A. baumannii IHMA 1795669, Tunisia 2018, Non-MDR",≤0.25 µg/mL
same,MIC,"A. baumannii IHMA 1814276, Lebanon 2018, MDR",>128 µg/mL
same,MIC,"A. baumannii IHMA 1815198, Kuwait 2018, MDR",>128 µg/mL
same,MIC,"A. baumannii IHMA 1815856, Israel 2018, MDR",>128 µg/mL
same,MIC,"A. baumannii IHMA 1821468, South Africa 2018, Non-MDR",≤0.25 µg/mL
same,MIC,"A. baumannii IHMA 1829500, Georgia 2018, Non-MDR",≤0.25 µg/mL
same,MIC,"A. baumannii IHMA 1830924, United Kingdom 2018, Non-MDR",16 µg/mL
same,MIC,"A. baumannii IHMA 1849819, Kuwait 2018, MDR",>128 µg/mL
same,MIC,"A. baumannii IHMA 1849829, Kuwait 2018, Non-MDR",≤0.25 µg/mL
same,MIC,"A. baumannii IHMA 1857118, Slovenia 2018, Non-MDR",≤0.25 µg/mL
same,MIC,"A. baumannii IHMA 1863631, France 2018, Non-MDR",≤0.25 µg/mL
same,MIC,"A. baumannii IHMA 1870054, United States 2018, Non-MDR",≤0.25 µg/mL
same,MIC,"A. baumannii IHMA 1884428, Italy 2018, Non-MDR",≤0.25 µg/mL
same,MIC,"A. baumannii IHMA 1884990, Germany 2018, Non-MDR",≤0.25 µg/mL
same,MIC,"A. baumannii IHMA 1900538, Turkey 2018, Non-MDR",≤0.25 µg/mL
same,MIC,"A. baumannii IHMA 1913773, Kenya 2018, Non-MDR",≤0.25 µg/mL
same,MIC,"A. baumannii IHMA 1926285, Qatar 2018, Non-MDR",≤0.25 µg/mL
same,MIC,"A. baumannii IHMA 1926288, Qatar 2018, MDR",>128 µg/mL
same,MIC,"A. baumannii IHMA 1957343, Portugal 2019, Non-MDR",8 µg/mL
same,MIC,"A. baumannii IHMA 1963732, Turkey 2019, MDR",>128 µg/mL
same,MIC,"A. baumannii IHMA 1967860, Spain 2019, Non-MDR",≤0.25 µg/mL
same,MIC,"A. baumannii IHMA 1971673, Latvia 2019, MDR",>128 µg/mL
same,MIC,"A. baumannii IHMA 1975075, Israel 2019, Non-MDR",8 µg/mL
same,MIC,"A. baumannii IHMA 1977077, Kuwait 2019, Non-MDR",16 µg/mL
same,MIC,"A. baumannii IHMA 1983151, Greece 2019, MDR",>128 µg/mL
same,MIC,"A. baumannii IHMA 1984665, Lithuania 2019, MDR",>128 µg/mL
same,MIC,"A. baumannii IHMA 1986678, Turkey 2019, Non-MDR",≤0.25 µg/mL
same,MIC,"A. baumannii IHMA 1986738, Turkey 2019, MDR",>128 µg/mL
same,MIC,"A. baumannii IHMA 1987162, Croatia 2019, MDR",>128 µg/mL
same,MIC,"A. baumannii IHMA 1993615, Turkey 2019, MDR",>128 µg/mL
same,MIC,"A. baumannii IHMA 1994284, Italy 2019, MDR",>128 µg/mL
same,MIC,"A. baumannii IHMA 1995161, Czech Republic 2019, Non-MDR",≤0.25 µg/mL
same,MIC,"A. baumannii IHMA 1997936, Morocco 2019, Non-MDR",4 µg/mL
same,MIC,"A. baumannii IHMA 1999178, Belgium 2019, Non-MDR",4 µg/mL
same,MIC,"A. baumannii IHMA 2003279, Turkey 2019, MDR",>128 µg/mL
same,MIC,"A. baumannii IHMA 2014367, Jordan 2019, Non-MDR",4 µg/mL
same,MIC,"A. baumannii IHMA 2014931, South Africa 2019, Non-MDR",0.5 µg/mL
same,MIC,"A. baumannii IHMA 2019315, Romania 2019, Non-MDR",≤0.25 µg/mL
same,MIC,"A. baumannii IHMA 2020360, Croatia 2019, MDR",>128 µg/mL
same,MIC,"A. baumannii IHMA 2031511, Greece 2019, Non-MDR",≤0.25 µg/mL
same,MIC,"A. baumannii IHMA 2031524, Greece 2019, MDR",>128 µg/mL
same,MIC,"A. baumannii IHMA 2034657, Tunisia 2019, Non-MDR",≤0.25 µg/mL
same,MIC,"A. baumannii IHMA 2035089, Serbia 2019, MDR",>128 µg/mL
same,MIC,"A. baumannii IHMA 2035134, Serbia 2019, Non-MDR",4 µg/mL
same,MIC,"A. baumannii IHMA 2038976, Hungary 2019, MDR",>128 µg/mL
same,MIC,"A. baumannii IHMA 2051503, Serbia 2019, MDR",>128 µg/mL
same,MIC,"A. baumannii IHMA 2058329, Slovenia 2019, Non-MDR",≤0.25 µg/mL
same,MIC,"A. baumannii IHMA 2065587, France 2019, Non-MDR",≤0.25 µg/mL
same,MIC,"A. baumannii IHMA 2099294, United Kingdom 2019, Non-MDR",4 µg/mL
same,MIC,"A. baumannii IHMA 2129256, Qatar 2019, Non-MDR",≤0.25 µg/mL
same,MIC,"A. baumannii IHMA 2154584, Israel 2020, MDR",>128 µg/mL
same,MIC,"A. baumannii IHMA 2155340, Kenya 2020, MDR",>128 µg/mL
same,MIC,"A. baumannii IHMA 2156634, Turkey 2020, MDR",>128 µg/mL
same,MIC,"A. baumannii IHMA 2156709, Turkey 2020, MDR",>128 µg/mL
same,MIC,"A. baumannii IHMA 2157614, Australia 2020, Non-MDR",≤0.25 µg/mL
same,MIC,"A. baumannii IHMA 2177232, Lithuania 2020, MDR",>128 µg/mL
same,MIC,"A. baumannii IHMA 2177489, Lithuania 2020, MDR",>128 µg/mL
same,MIC,"A. baumannii IHMA 2178574, Ukraine 2020, Non-MDR",2 µg/mL
same,MIC,"A. baumannii IHMA 2180134, Malaysia 2020, Non-MDR",2 µg/mL
same,MIC,"A. baumannii IHMA 2180142, Malaysia 2020, MDR",>128 µg/mL
same,MIC,"A. baumannii IHMA 2181370, Morocco 2020, MDR",>128 µg/mL
same,MIC,"A. baumannii IHMA 2183729, Argentina 2020, MDR",>128 µg/mL
same,MIC,"A. baumannii IHMA 2183849, Argentina 2020, Non-MDR",≤0.25 µg/mL
same,MIC,"A. baumannii IHMA 2184382, Japan 2020, Non-MDR",≤0.25 µg/mL
same,MIC,"A. baumannii IHMA 2193375, Venezuela 2020, MDR",>128 µg/mL
same,MIC,"A. baumannii IHMA 2193485, Venezuela 2020, Non-MDR",≤0.25 µg/mL
